Test results from patent US20150190470A1, “COMBINATION THERAPY” (TETRALOGIC PHARMACEUTICALS CORPORATION, priority 2012, published 2015).

Experiments:
[1] = human, in vivo
Text: In general, Compound 15 can be administered once, twice or three times per week for one to four weeks (or longer). In some situations a treatment interval may be followed by a rest interval. A suitable rest interval includes but is not limited to one week. […] It should be understood that the “on” weeks are consecutive weeks, i.e., two consecutive weeks on drug, three consecutive weeks on drug, and four consecutive weeks (or more) on drug.

[2] = test system: MDA-MB-231 cells (human breast cancer), Smac mimetic resistant variant; assay: Viability of MDA-MB-231 cells (MTT) with PBMC culture supernatants and Compound 15; type: cell-based; details: 1 μM Compound 15 with supernatant of 1 ng/mL GM-CSF-treated Donor 1 PBMC culture, 24 hr, FIG. 3(a)
Experimental: MDA-MB-231 cells (human breast cancer) were seeded into 96-well plates at a density of 10,000 cells/well and allowed to adhere overnight. Next day, culture supernatants from untreated Donor 1 PBMC culture or 1 ng/mL GM-CSF-treated Donor 1 PBMC culture was added to MDA-MB-231 cells in the presence or absence of 1 μM Compound 15, 1 μM Compound 15 plus TNFα neutralizing antibody (R&D Systems #MAB610, 10 μg/mL), 1 μM Compound 15 plus TRAIL neutralizing antibodies (R&D Systems #374-DR and 631-T2, 100 ng/ml each) or 1 μM Compound 15 plus both TNFα and TRAIL neutralizing antibodies. All antibodies were tested in the absence of Compound 15 as control. Viability of MDA-MB-231 cells was measured following 24 hr incubation at 37° C./5% CO2 by MTT (3-(4,5-dimethylthiazol-2-yl)-2,5-diphenyltetrazolium bromide) assay substantially as described in Hansen, M. B., Nielsen, S. E., and Berg, K. (1989) J. Immunol. Methods 119, 203-210.
In an extension study, substantially the same experiment was carried out with culture supernatants from two additional donors, Donors 3 and 4, excluding treatment with the combination of anti-TNFα and anti-TRAIL antibodies.

RenCa cells = assay: Survival of BALB/c mice inoculated with RenCa cells; type: in vivo; details: female BALB/c mice, RenCa cells on each flank; qdX5 each week for 4 weeks; birinapant 15 mg/Kg IP, mGM-CSF 10 mg IP
Experimental: 40 female BALB/c mice (10 per treatment group) were inoculated with 1×10^5 RenCa cells on each flank. The mice were subsequently treated qdX5 each week for 4 consecutive weeks with birinapant, mGM-CSF, birinapant and mGM-CSF, or a vehicle control. Each dose of birinapant was 15 mg/Kg IP and each dose of mGM-CSF was 10 mg IP.

[3] = test system: human peripheral blood mononuclear cells (PBMCs); assay: Ex-vivo treatment of PBMCs with GM-CSF; cytokine concentration in culture supernatants by ELISA; type: cell-based
Experimental: Peripheral blood mononuclear cells (PBMC) were isolated from two healthy male donors using BD Vacutainer® CPT cell preparation tubes (Becton, Dickinson and Company, Franklin Lakes N.J. 07417, REF 362753) according to manufacturer's protocol. After isolation, mononuclear cell layer was removed from CPT tube and transferred to a sterile 15 mL centrifuge tube. Cells were washed by adding 10 mL of Dulbecco's Modified Eagle Medium (DMEM) containing 10% fetal bovine serum (FBS) to cells, tube was inverted several times to mix and cells were pelleted by centrifugation at 1500 RPM for 10 minutes. Following centrifugation, media was removed and cells were resuspended in DMEM containing 10% FBS to a concentration of 1×10^6 cells/mL. Cells were next seeded into 6-well dishes at 1×10^6 cells/mL in 2 mL/well. Following 2 hr incubation at 37° C./5% CO2, human recombinant GM-CSF (R&D Systems, Minneapolis Minn. 55413, Catalog # #215-GM) was added to cells at indicated concentrations. Following overnight incubation at 37° C./5% CO2, media was collected into sterile 15 mL centrifuge tubes and cells were removed by centrifugation at 1500 RPM for 10 minutes. Media was transferred to new, sterile tubes and frozen at −80° C. until use.
TNFα concentration in culture supernatants was determined by ELISA (BD OptEIA TNF kit II) according to manufacturer's recommendations. Absorbance values were analyzed using GraphPad Prism linear regression analysis and reported as pg/mL TNFα.
In a first extension of the preceding study, substantially the same experiment was carried out with PBMCs from two additional donors, Donors 3 and 4. In this first extension study, cells were treated with GM-CSF, GM-CSF+1.0 uM birinapant.
In a second extension study, substantially the same experiment was subsequently carried out with new PBMC culture supernatants from Donors 1, 3, and 4.

[4] = test system: Mouse renal carcinoma (RenCa) cells; assay: Viability of RenCa cells (MTT) with birinapant plus TNFα or mouse GM-CSF; type: cell-based; details: in combination with birinapant, TNFα 0.000001 to 100 ng/mL or mouse GM-CSF 0.001 to 10 ng/mL, 24 h
Experimental: Mouse renal carcinoma (RenCa) cells were seeded into 96-well plates at a density of 10,000 cells/well and allowed to adhere overnight. On the next day, birinapant alone or in combination with varying concentrations of TNFα (R&D systems) (0.000001 to 100 ng/mL) or mouse GM-CSF (R&D Systems) (0.001 to 10 ng/mL) were added. Following a 24 h incubation, viability was assessed by MTT assay.

What does the source list for `CC[C@H](NC(=O)[C@H](C)NC)C(=O)N1C[C@@H](O)C[C@H]1Cc1c(-c2[nH]c3cc(F)ccc3c2C[C@@H]2C[C@H](O)CN2C(=O)[C@H](CC)NC(=O)[C@H](C)NC)[nH]c2cc(F)ccc12` [Compound 15, N-{1S-[2R-(6,6′-Difluoro-3′-{4S-hydroxy-1-[2S-(2S-methylamino-propionylamino)-butyryl]-pyrrolidin-2R-ylmethyl}-1H,1′H-[2,2′]biindolyl-3-ylmethyl)-4S-hydroxy-pyrrolidine-1-carbonyl]-propyl}-2S-methylamino-propionamide]?
half-life in the patient [1]: long half-life; viability of MDA-MB-231 cells / induction of apoptosis [2]: sensitization of MDA-MB-231 Smac mimetic resistant variant to Compound 15; time to which 50% of mice survived (RenCa cells): approximately 40 days

What does the source list for “GM-CSF: Granulocyte macrophage colony-stimulating factor; human recombinant GM-CSF (R&D Systems) in Example 1”?
expression and secretion of TNFα by PBMCs ([3]; Donors 1 and 2, overnight incubation with GM-CSF, ELISA, FIGS. 1(a),(b)): increased expression and secretion of TNFα; expression and secretion of TNFα by PBMCs ([3]; first extension study, Donors 3 and 4, FIGS. 1(c),(d)): increased expression and secretion of TNFα; expression and secretion of TNFα by PBMCs ([3]; second extension study, new PBMC culture supernatants from Donors 1, 3 and 4, FIGS. 2(a)-(c)): increased expression and secretion of TNFα; RenCa cell viability [4]: unaffected

For TNFα [reference compound], which RenCa cell viability [4] is on record?
Its RenCa cell viability is “decreased in direct relation to the concentration of TNFα”.

B1: mGM-CSF: mouse GM-CSF (R&D Systems) (protein, UniProt P01587 18-141, looked up)
Granulocyte-macrophage …: APTRSPITVTRPWKHVEAIKEALNLLDDMPVTLNEEVEVVSNEFSFKKLTCVQTRLKIFEQGLRGNFTKLKGALNMTASYYQTYCPPTPETDCETQVTTYADFIDSLKTFLTDIPFECKKPGQK
Which “time to which 50% of mice survived” value (RenCa cells) does the source give for B1 here?
Its value is “approximately 30 days”.
